Test results: patent US20080207724A1, “Use of Inhibitors of Histone Deacteylases in Combination With Compounds Acting as Nsaid for the Therapy of Human Diseases” (priority 2005, published 2008)

Columns and labels:
THP-1 monocytes = experiment: Prostaglandin secretion, Celecoxib plus HDAC inhibitor, THP-1 monocytes; type: cell-based, human; details: in combination with Celecoxib, FIG. 4
Experimental: In parallel, Cox-2 protein levels were reduced as already described.
(§1) In detail, cells were seeded at a density of 7,5×10^4 per well in 24 well plates. Supernatants were analyzed in a dilution of 1:3 in duplicates with the prostaglandin E2 EIA Kit from Cayman according to the manufacture's instructions. Bars show the mean of two values. Cell extracts were prepared by removing growth medium completely and adding of 200 μl of Laemmli Sample buffer per well. Subsequently, 60 μl were loaded on 8% acrylamide gels and subjected to discontinuous electrophoresis. Proteins blotted onto PVDF membranes which were probed with a goat anti-Cox-2 antibody (St. Cruz, scl 747) or a mouse anti-pan-actin (to analyze the expression of this control protein) antibody (Ab-5, NeoMarkers).

Cox-2 [1] = experiment: Cox-2 expression (Western blot / RT-PCR) in various cell types; type: cell-based, human; details: for Expression of Cox-2 on RNA and protein level: several systems: A-549, SK-Mel, HT-29, MDA-MB-231, THP-1, primary human lymphocytes and macrophages, FIGS. 1 and 2
Experimental: In HT-29 colon carcinoma cells Cox-2 expression was induced by treatment with 100 ng/ml TNF-α for 4 h.
Cells were seeded at densities between 5×10^4 and 1×10^5 cells per well of 24 well plates. Lysis was done by removing growth medium and adding 200 μl of Laemmli sample buffer per well. 60 μl were loaded on 8% acrylamide gels and subjected to discontinuous electrophoresis. Proteins blotted onto PVDF membranes were probed with a goat-anti-Cox-2 antibody (St. Cruz, sc1747) or a mouse anti-pan-actin antibody (Ab-5, NeoMarkers).
as §1, with “electrophoresis.” for “electrophoresis. Proteins blotted onto PVDF membranes which were probed with a goat anti-Cox-2 antibody (St. Cruz, scl 747) or a mouse anti-pan-actin (to analyze the expression of this control protein) antibody (Ab-5, NeoMarkers).”

Cox-2 [2] = experiment: Semi quantitative RT-PCR of Cox-2 in peripheral blood lymphocytes of VPA-treated patients; type: in vivo, human; details: patients treated with 30 mg/kg/d or 120 mg/kg/d VPA; control gene GAPDH unchanged; FIG. 1B
Experimental: Semi quantitative RT-PCR was also performed with RNA isolated form peripheral blood lymphocytes of patients treated with doses 30 mg/kg/d (Patient 1) or 120 mg/kg/d VPA (Patient 2) respectively.

prostaglandin E2 = experiment: Prostaglandin levels in liver extracts of APCmin mice (ex vivo cyclooxygenase activity); set-up: species or system mouse; details: liver taken 3 hours after final dose, same treatment as adenoma study, FIG. 5b
Experimental: (§2) Control animals were injected (i.p.) with PBS. […] At sacrifice entire intestinal tracts were opened longitudinally and fixed in 10% phosphate buffered formaldehyde for 24 hours followed by ethanol-fixation in 50% ethanol for three days. […] Cyclooxygenase activity was assessed ex vivo in hepatic tissue as described (Reuter et al., 2002; BMC Cancer 2:19). Briefly, mice were euthanized 3 hours following the final dose of vehicle or drugs and a sample of liver tissue (−100 mg) was obtained. The samples were then placed into microcentrifuge tubes containing 1 ml of sodium phosphate buffer (10 mM, pH 7.4) and finely minced with scissors for 15 seconds. Samples were then incubated for 20 min at […] in a shaking water bath. After the incubation period, samples were centrifuged at 9000×g for 30 seconds and the supernatants collected. Supernatants were flash frozen in liquid nitrogen and stored at […] for subsequent determination of prostaglandin E2 content. PGE2 concentrations were determined in duplicates after 1:20 dilution of supernatants using a commercially available competitive Enzyme Immunoassay (Cayman Chemical).

[3] = test system: collagen induced arthritis in DBA/1 mice; experiment: Therapeutic collagen induced arthritis (CIA) model, clinical severity score; type: in vivo; details: DBA/1 mice with CIA, 15 days; VPA 2×400 mg/kg/d i.p., G2M-707 2×1 mg/mouse/d i.p.; versus control group; FIG. 6 upper panel
Experimental: To evaluate this anti-inflammatory potency of HDAC inhibitors in a therapeutic in vivo inflammation model we applied VPA and G2M-707 to mice that had developed collagen induced arthritis (CIA).
Prednisolon, a corticosteroid drug in clinical use for RA, was used as a positive control in this study.
In detail, in this therapeutic CIA model, DBA/1 female mice of age 7 weeks were immunized with 100 μg of chicken type II collagen (Chondrex) in CFA. Development of arthritis started 21 to 28 days after immunization and reached an incidence of 93% after 6 weeks. The severity was medium to high and reached a mean score of 10.3 (maximum score 15) in untreated animals. The mice were monitored daily for signs of arthritis using an established scoring system. At the first sign of arthritis, the affected mice were assigned to a treatment group. The mice were treated for 15 days with vehicle control or VPA at 2×400 mg/kg/d i.p. or G2M-707 at 2×1 mg/mouse/d i.p. or Prednisolon at 2×20 mg/kg/d (i.p.). Clinical severity of arthritis was assessed based on the appearance of each paw and subjectively graded on a scale of 0 to 4. The scores of each limb were summed, giving a maximum severity score of 16. […] After onset of disease the animals were scored 3 times a week.

TNF-α, IFN-γ and IL-6 = experiment: Semi quantitative RT-PCR of cytokine RNA in LPS-induced THP-1 cells; type: cell-based, human; details: THP-1 cells differentiated with TPA; 1 mM VPA or 10 μM G2M-707 over night, then 10 μg/ml LPS 6 h; FIG. 1A
Experimental: (§3) THP-1 cells were induced to differentiate by addition of 20 ng/ml TPA to the growth medium for 3d. Adherent cells were seeded at a density of 5×10^5 cells per well of a 6-well plate, and were incubated with 1 mM VPA or 10 μM G2M-707 over night (FIG. 1A). Cox-2 expression was then induced by addition of 10 μg/ml LPS for 6 h. RNA was prepared using the RNeasy Kit from Qiagen according to the manufacturer's instructions. Reverse transcription was done with 1 μg of RNA in a volume of 20 μl. 1 μl was used for each PCR reaction with specific primers for the indicated genes.

[4] = test system: adenomas in C57BL/6J-APCmin/+ mice; experiment: Adenoma number in the APCmin mouse model; type: in vivo; details: four weeks, VPA sodium salt 2×400 mg/kg/day i.p., Celecoxib 1250 ppm in diet, combination same dosages, FIG. 5A
Experimental: as §2

[5] = test system: MDA-MB-231 mammary carcinoma cells; experiment: Prostaglandin secretion, Celecoxib plus HDAC inhibitor, MDA-MB-231 cells; type: cell-based, human; details: in combination with Celecoxib, FIG. 4
Experimental: as §1, with “electrophoresis.” for “electrophoresis. Proteins blotted onto PVDF membranes which were probed with a goat anti-Cox-2 antibody (St. Cruz, scl 747) or a mouse anti-pan-actin (to analyze the expression of this control protein) antibody (Ab-5, NeoMarkers).”

COX-2 RNA = experiment: Semi quantitative RT-PCR of COX-2 RNA in LPS-induced THP-1 cells; type: cell-based, human; details: THP-1 cells differentiated with TPA; 1 mM VPA or 10 μM G2M-707 over night, then 10 μg/ml LPS 6 h; FIG. 1A
Experimental: as §3

TNF-α = experiment: Acute LPS-induced inflammation model, serum TNF-α ELISA; type: in vivo; details: 3H1 mice; i.p. 1 h before LPS (50 μg per mouse); blood 1 h after LPS; VPA 400 mg/kg/d, G2M-707 1 mg/mouse/d; FIG. 6 lower panel
Experimental: To evaluate the ability of HDAC inhibitors to inhibit soluble TNF-α secretion in vivo, an acute LPS-induced inflammation model in 3H1 mice was used. The mice were injected i.p. with substances tested 1 h before the i.p. injection of LPS. Blood samples were drawn 1 h after LPS stimulus and the TNF-α levels in the serum were determined using a TNF-α ELISA assay. As shown in FIG. 6 (lower panel), VPA and G2M-707 pretreatment led to a 60% reduction in absolute TNF-α serum levels in comparison to the control mice.
In detail, mice were treated with VPA (400 mg/kg/d, n=8), G2M-701 (1 mg/mouse/d, n=4), G2M-707 (1 mg/mouse/d, n=4) or with 200 μl PBS (control, n=8) 1 h before inflammation was induced with 50 μg LPS (Sigma) per mouse. One hour after the LPS treatment, blood was taken by cardiac puncture and serum was isolated. The serum was tested in a TNF-α sandwich ELISA module from Bender MedSystems. The assay was performed as described in the manufacturer's manual. ABTS was used as a substrate and measuring was accomplished with a 96-well plate reader at a wavelength of 405 nm. Absolute OD levels at 405 nm are given.

Row | Structure (SMILES) | prostaglandin levels, HDAC inhibitor added to Celecoxib (THP-1 monocytes) | Expression of Cox-2 on RNA and protein level (Cox-2 [1]) | Cox-2 RNA in peripheral blood lymphocytes of patients (Cox-2 [2]) | prostaglandin levels in liver extracts (prostaglandin E2) | clinical severity scores (sum score) [3] | TNF-α, IFN-γ and IL-6 RNA (TNF-α, IFN-γ and IL-6) | number of adenomas [4] | repression of prostaglandin secretion by Celecoxib, HDAC inhibitor added [5] | COX-2 RNA (COX-2 RNA) | Cox-2 protein levels (Cox-2 [1]; MDA-MB-231 cells, VPA together with Celecoxib, FIG. 4) | reduction in absolute TNF-α serum levels in comparison to the control mice (TNF-α)
1 | CC(/C=C/C(=O)NO)=C\[C@@H](C)C(=O)c1ccc(N(C)C)cc1 [TSA, Trichostatin A] | reduce the prostaglandin levels further | downregulated |  |  |  |  |  |  |  |  | 
2 | CCCC(CCC)C(=O)O [VPA, 2-propyl-pentanoic acid] |  | downregulated | downregulation | decrease | efficiently reduced | downregulation | significantly reduces | dose dependently enhance | downregulation | reduced | 60%
